Measured values taken from PubChem BioAssay (NCI).
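Briefly, cells in 96-well plates were exposed to five compound concentrations for 48 h, and endpoints were estimated by linear interpolation. At the GI50, growth is halved. TGI is the concentration that stops growth completely.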

Legend:
Assay in all cases: NCI tumour cell line growth inhibition, 48 h
SK-MEL-5 melanoma = tested on: SK-MEL-5 melanoma
K-562 leukemia = tested on: K-562 leukemia
HL-60(TB) leukemia = tested on: HL-60(TB) leukemia
MOLT-4 leukemia = tested on: MOLT-4 leukemia
SN12C renal = tested on: SN12C renal
KM20L2 colon = tested on: KM20L2 colon
LXFL 529 NSCLC = tested on: LXFL 529 NSCLC
HOP-92 NSCLC = tested on: HOP-92 NSCLC
MDA-MB-435 = tested on: MDA-MB-435
MCF7 breast = tested on: MCF7 breast

Row | Structure (SMILES) | TGI (SK-MEL-5 melanoma) [µM] | TGI (K-562 leukemia) [µM] | TGI (HL-60(TB) leukemia) [µM] | TGI (MOLT-4 leukemia) [µM] | TGI (SN12C renal) [µM] | TGI (KM20L2 colon) [µM] | TGI (LXFL 529 NSCLC) [µM] | TGI (HOP-92 NSCLC) [µM] | GI50 (SK-MEL-5 melanoma) [µM] | GI50 (K-562 leukemia) [µM] | GI50 (HL-60(TB) leukemia) [µM] | GI50 (MOLT-4 leukemia) [µM] | GI50 (SN12C renal) [µM] | GI50 (KM20L2 colon) [µM] | GI50 (LXFL 529 NSCLC) [µM] | GI50 (HOP-92 NSCLC) [µM] | TGI (MDA-MB-435) [µM] | TGI (MCF7 breast) [µM] | GI50 (MDA-MB-435) [µM] | GI50 (MCF7 breast) [µM]
1 | CC(=O)Oc1cc2c(cc1OC(C)=O)C1(C)CCC2(C)c2cc(OC(C)=O)c(OC(C)=O)cc21 | 54.7 | 81.8 | 19.9 | 96.1 | > 100 | 79.5 | 19.6 | 38.2 | – | – | – | – | – | – | – | – | – | – | – | –
2 | CCCCCCCCCCCCCP(=O)(O)O | > 100 | – | > 100 | – | > 100 | > 100 | > 100 | > 100 | – | – | – | – | – | – | – | – | – | – | – | –
3 | CC(=O)Oc1c(C)c(-c2ccccc2)c(C)c(-c2ccccc2)c1C(=S)c1ccccc1 | > 100 | > 100 | > 100 | > 100 | > 100 | > 100 | > 100 | > 100 | – | – | – | – | – | – | – | – | – | – | – | –
4 | CCOC(=O)[CH-]C(=O)C12CC3CC(CC(C3)C1)C2.CCOC(=O)[CH-]C(=O)C12CC3CC(CC(C3)C1)C2.CC[O-].CC[O-].[Ti+4] | > 100 | > 100 | > 100 | > 100 | > 100 | > 100 | > 100 | > 100 | > 100 | > 100 | > 100 | > 100 | > 100 | > 100 | > 100 | > 100 | – | – | – | –
5 | O=C1C=C(Nc2ccccc2C(=O)CC(=O)C(=O)Nc2cccc([N+](=O)[O-])c2)c2ccccc2C1=O | 26.3 | > 100 | 15.6 | > 100 | 81.8 | > 100 | > 100 | > 100 | – | – | – | – | – | – | – | – | – | – | – | –
6 | O=C(Nc1ccc(Cl)cc1)C1C(=O)C(=O)N(c2ccc(Cl)cc2)C1=O (stereo not given) | > 100 | > 100 | > 100 | > 100 | > 100 | > 100 | > 100 | 69.3 | – | – | – | – | – | – | – | – | – | – | – | –
7 | C[C@]12CC=CC(=O)[C@@]1(C)CCC(=O)C2 | > 100 | > 100 | > 100 | > 100 | > 100 | – | > 100 | > 100 | – | – | – | – | – | – | – | – | – | – | – | –
8 | Cc1ccc(S(=O)(=O)OC2CC=CC2)cc1 | > 100 | > 100 | > 100 | > 100 | > 100 | > 100 | > 100 | > 100 | – | – | – | – | – | – | – | – | – | – | – | –
9 | NC1=NN(c2ccccc2)C(=O)C1C(=O)CCC(=O)Nc1cccc(Cl)c1 (stereo not given) | > 100 | > 100 | > 100 | – | > 100 | > 100 | > 100 | > 100 | – | – | – | – | – | – | – | – | – | – | – | –
10 | COc1ccc(NC(=O)CC/C(CC(=O)c2ccco2)=N/NC(=O)C(N)=O)cc1 | > 100 | > 100 | > 100 | > 100 | > 100 | > 100 | > 100 | – | – | – | – | – | – | – | – | – | – | – | – | –
11 | COc1cc(NCC(C#N)C#N)ccc1N=Nc1ccc(Cl)cc1 | 45.9 | 50.5 | – | 39.8 | > 100 | 29.3 | 51.7 | – | – | – | – | – | – | – | – | – | – | – | – | –
12 | COc1ccc([C@@]2(O)c3c(ccc(O)c3OC)[C@H]2OC)c(OC)c1 | > 100 | > 100 | > 100 | > 100 | > 100 | > 100 | > 100 | > 100 | – | – | – | – | – | – | – | – | – | – | – | –
13 | O=C(NC(=O)c1c(F)cccc1F)Nc1cccc(Oc2ncc(Cl)cn2)c1 | > 100 | > 100 | > 100 | > 100 | > 100 | – | > 100 | 70.9 | – | – | – | – | – | – | – | – | > 22.8 | > 100 | – | –
14 | Cc1cc(N(CC(C)Br)CC(C)Br)ccc1N=Nc1ccccc1C(=O)O (stereo not given) | 14.6 | 4.8 | 36.6 | > 100 | 20 | 24.2 | – | 10 | – | – | – | – | – | – | – | – | 33.5 | 7.67 | – | –
15 | N[C@H](C(=O)O)[C@@H]1CC(Cl)=NO1 | 493 | > 944 | – | > 806 | > 1000 | > 1000 | – | 541 | 8.51 | 7.16 | 4.89 | 5.21 | 53.7 | – | – | – | > 645 | 325 | 25.3 | 4.77
16 | O=S(=O)(C1=CC(S(=O)(=O)c2ccccc2)CN(Cc2ccccc2)C1c1cccc2ccccc12)c1ccccc1 (stereo not given) | > 69 | > 69 | > 69 | > 69 | > 69 | > 69 | – | > 69 | – | – | – | – | – | – | – | – | – | – | – | –
17 | NC(CSC(c1ccccc1)(c1ccccc1)c1ccccc1)C(=O)NCC(=O)O (stereo not given) | 31.4 | > 100 | 12 | 86.3 | > 100 | – | – | > 100 | 3.4 | 3.19 | 2.85 | 16 | 4.05 | – | – | 5.01 | 6.8 | > 100 | 2.38 | 3.87
18 | COc1cc(NS(=O)(=O)c2ccc(C)cc2)c2nccnc2c1 | 63.7 | > 100 | 51.7 | 52.3 | > 100 | > 100 | > 100 | > 100 | – | – | – | – | – | – | – | – | – | – | – | –
19 | COc1ccc2c(c1)OC1=C(C(=O)OC1)C2c1cc(OC)c2c(c1)OCCO2 (stereo not given) | 0.535 | > 100 | 0.174 | > 100 | > 100 | – | – | > 100 | 0.0347 | 0.0432 | 0.042 | 0.182 | 0.0972 | – | – | 0.0629 | 0.056 | > 100 | 0.021 | 0.0352
20 | COC(=O)C(=O)CC(=O)CCn1[nH]c(=O)c(Cl)c(Cl)c1=O | > 100 | > 100 | > 100 | – | > 100 | > 100 | > 100 | > 100 | – | – | – | – | – | – | – | – | – | – | – | –
21 | CCC[CH2][Sn]([CH2]CCC)([O]C(=O)CN)[O]C(=O)CN | > 100 | > 100 | 65 | > 100 | > 100 | > 100 | 26 | > 100 | 66.6 | 18.7 | 18.5 | 29.1 | 57.2 | 63.6 | 11.4 | 73.2 | – | – | – | –
